Experimental data: patent publication US20110224208A1, “NOVEL INHIBITORS OF FLAVIVIRUS REPLICATION” (KATHOLIEKE UNIVERSITEIT LEUVEN, K.U. LEUVEN R&D, priority 2008, published 2011)
In brackets after ≈: the same amount, converted by molar mass.

These compounds were tested on HCV replicon I389luc-ubi-neo/NS3-3'/5.1 (assay: Anti-HCV replicon assay (luciferase activity) in Huh-5-2 cells). Conditions: Hepatitis C virus, Huh-5-2, 72 h, concentration required to inhibit luciferase activity in the replicon system by 50%.
Type: cell-based, Hepatitis C virus
Description: Cells were seeded at a density of 7000 cells per well in 96 well View Plate™ (Packard) in medium containing the same components as described above, except for G418. Cells were allowed to adhere and proliferate for 24 hr. At that time, culture medium was removed and serial dilutions of the test compounds were added in culture medium lacking G418. Interferon alfa 2a (500 IU) was included as a positive control. Plates were further incubated at 37° C. and 5% CO2 for 72 hours. Replication of the HCV replicon in Huh-5 cells results in luciferase activity in the cells. Luciferase activity is measured by adding 50 μl of 1×Glo-lysis buffer (Promega) for 15 minutes followed by 50 ul of the Steady-Glo Luciferase assay reagent (Promega). Luciferase activity is measured with a luminometer and the signal in each individual well is expressed as a percentage of the untreated cultures. […] Instead the density of the culture is measured by means of the MTS method (Promega).
In the case of `COCCN1C(=O)c2ccccc2C(C(=O)Nc2nc(C)c(C)s2)C1c1cccs1` (stereo not shown) [C156, N-(4,5-dimethylthiazol-2-yl)-2-(2-methoxyethyl)-1-oxo-3-(thiophen-2-yl)-1,2,3,4-tetrahydroisoquinoline-4-carboxamide], the IC50 is reported as 37.4 µg/mL (≈ 84.7 µM). With `COCCN1C(=O)c2ccccc2C(C(=O)Nc2ccccc2-c2ccccc2)C1c1cccs1` (stereo not shown) [C84, N-(biphenyl-2-yl)-2-(2-methoxyethyl)-1-oxo-3-(thiophen-2-yl)-1,2,3,4-tetrahydroisoquinoline-4-carboxamide] the IC50 was 12 µg/mL (≈ 24.9 µM). Compound `COCCN1C(=O)c2ccccc2C(C(=O)Nc2cccc(OC)c2)C1C` (stereo not shown) [C69, 2-(2-methoxyethyl)-N-(3-methoxyphenyl)-3-methyl-1-oxo-1,2,3,4-tetrahydroisoquinoline-4-carboxamide] has an IC50 of 8.7 µg/mL (≈ 23.6 µM). `COCCN1C(=O)c2ccc(F)cc2C(C(=O)Nc2cccc(OC)c2)C1c1cccs1` (stereo not shown) [C77, 6-fluoro-2-(2-methoxyethyl)-N-(3-methoxyphenyl)-1-oxo-3-(thiophen-2-yl)-1,2,3,4-tetrahydroisoquinoline-4-carboxamide] gave an IC50 of 11.2 µg/mL (≈ 24.7 µM). `COCCN1C(=O)c2ccccc2C(C(=O)Nc2cccc(-n3cccc3)c2)C1c1cccs1` (stereo not shown) [C115, N-(3-(1H-pyrrol-1-yl)phenyl)-2-(2-methoxyethyl)-1-oxo-3-(thiophen-2-yl)-1,2,3,4-tetrahydroisoquinoline-4-carboxamide] gave an IC50 of 0.29 µg/mL (≈ 0.615 µM). `COCCN1C(=O)c2cc([N+](=O)[O-])ccc2C(C(=O)Nc2cccc(OC)c2)C1c1cccs1` (stereo not shown) [C3, 2-(2-methoxyethyl)-N-(3-methoxyphenyl)-7-nitro-1-oxo-3-(thiophen-2-yl)-1,2,3,4-tetrahydroisoquinoline-4-carboxamide] gave an IC50 of 40.9 µg/mL (≈ 84.9 µM). Compound `COCCN1C(=O)c2ccccc2C(C(=O)Nc2cc[nH]n2)C1c1cccs1` (stereo not shown) [C184, 2-(2-methoxyethyl)-1-oxo-N-(1H-pyrazol-3-yl)-3-(thiophen-2-yl)-1,2,3,4-tetrahydroisoquinoline-4-carboxamide] has an IC50 of 55 µg/mL (≈ 139 µM). Compound `COCCN1C(=O)c2ccccc2C(C(=O)Nc2cccc(OC)c2)C1c1cccn1C` (stereo not shown) [C106, 2-(2-methoxyethyl)-N-(3-methoxyphenyl)-3-(1-methyl-1H-pyrrol-2-yl)-1-oxo-1,2,3,4-tetrahydroisoquinoline-4-carboxamide] has an IC50 of 44.4 µg/mL (≈ 103 µM). `COCCN1C(=O)c2ccccc2C(C(=O)O)C1c1cccs1` (stereo not shown) [C36, 2-(2-methoxyethyl)-1-oxo-3-(thiophen-2-yl)-1,2,3,4-tetrahydroisoquinoline-4-carboxylic acid] was tested, and the IC50 was 47.1 µg/mL (≈ 142 µM). `COCCN1C(=O)c2ccccc2C(C(=O)Nc2ccc(NC(C)=O)cc2)C1c1cccs1` (stereo not shown) [C129, N-(4-acetamidophenyl)-2-(2-methoxyethyl)-1-oxo-3-(thiophen-2-yl)-1,2,3,4-tetrahydroisoquinoline-4-carboxamide] gave an IC50 of 6.66 µg/mL (≈ 14.4 µM). With `CCCCN1C(=O)c2ccccc2C(C(=O)Nc2cccc(OC)c2)C1c1cccs1` (stereo not shown) [C16, 2-Butyl-N-(3-methoxyphenyl)-1-oxo-3-(thiophen-2-yl)-1,2,3,4-tetrahydroisoquinoline-4-carboxamide] the IC50 was 1.1 µg/mL (≈ 2.53 µM). `COCCN1C(=O)c2ccccc2C(C(=O)Nc2cccc(Cl)c2)C1c1cccs1` (stereo not shown) [C60, N-(3-chlorophenyl)-2-(2-methoxyethyl)-1-oxo-3-(thiophen-2-yl)-1,2,3,4-tetrahydroisoquinoline-4-carboxamide] showed an IC50 of 0.98 µg/mL (≈ 2.22 µM). For `COCCN1C(=O)c2ccccc2C(C(=O)Nc2ccc3occc3c2)C1c1cccs1` (stereo not shown) [C195, N-(benzofuran-5-yl)-2-(2-methoxyethyl)-1-oxo-3-(thiophen-2-yl)-1,2,3,4-tetrahydroisoquinoline-4-carboxamide], the IC50 was 0.13 µg/mL (≈ 0.291 µM). With `COCCN1C(=O)c2ccccc2C(C(=O)Nc2ccc(Cl)cn2)C1c1cccs1` (stereo not shown) [C223, N-(5-chloropyridin-2-yl)-2-(2-methoxyethyl)-1-oxo-3-(thiophen-2-yl)-1,2,3,4-tetrahydroisoquinoline-4-carboxamide] the IC50 was 1 µg/mL (≈ 2.26 µM). With `COCCN1C(=O)c2ccccc2C(C(=O)Nc2ccc3scnc3c2)C1c1cccs1` (stereo not shown) [C164, N-(benzo[d]thiazol-5-yl)-2-(2-methoxyethyl)-1-oxo-3-(thiophen-2-yl)-1,2,3,4-tetrahydroisoquinoline-4-carboxamide] the IC50 was 0.13 µg/mL (≈ 0.28 µM). `COCCN1C(=O)c2ccccc2C(C(=O)Nc2cccc(OC)c2)C1c1cc(C)no1` (stereo not shown) [C104, 2-(2-methoxyethyl)-N-(3-methoxyphenyl)-3-(3-methylisoxazol-5-yl)-1-oxo-1,2,3,4-tetrahydroisoquinoline-4-carboxamide] was tested, and the IC50 was 10.1 µg/mL (≈ 23.1 µM). `COCCN1C(=O)c2ccccc2C(COCc2ccccc2)C1c1cccs1` (stereo not shown) [C76, 4-(benzyloxymethyl)-2-(2-methoxyethyl)-3-(thiophen-2-yl)-3,4-dihydroisoquinolin-1(2H)-one] gave an IC50 of 22 µg/mL (≈ 54.1 µM). For `COCCN1C(=O)c2ccccc2C(C(=O)Nc2ccc(-n3cccc3)c(C#N)c2)C1c1cccs1` (stereo not shown) [C222, N-(3-cyano-4-(1H-pyrrol-1-yl)phenyl)-2-(2-methoxyethyl)-1-oxo-3-(thiophen-2-yl)-1,2,3,4-tetrahydroisoquinoline-4-carboxamide], the IC50 was 0.21 µg/mL (≈ 0.423 µM). Compound `COCCN1C(=O)c2ccccc2C(C(=O)Nc2nc(C)co2)C1c1cccs1` (stereo not shown) [C154, 2-(2-methoxyethyl)-N-(4-methyloxazol-2-yl)-1-oxo-3-(thiophen-2-yl)-1,2,3,4-tetrahydroisoquinoline-4-carboxamide] has an IC50 of 3.68 µg/mL (≈ 8.94 µM). `COCCN1C(=O)c2ccccc2C(C(=O)Nc2ccc(Cl)c(Cl)c2)C1c1cccs1` (stereo not shown) [C87, N-(3,4-dichlorophenyl)-2-(2-methoxyethyl)-1-oxo-3-(thiophen-2-yl)-1,2,3,4-tetrahydroisoquinoline-4-carboxamide] showed an IC50 of 0.15 µg/mL (≈ 0.316 µM). With `COCCN1C(=O)c2ccccc2C(C(=O)Nc2cccc(OC)c2)C1c1c(F)cccc1F` (stereo not shown) [C10, 3-(2,6-Difluorophenyl)-2-(2-methoxyethyl)-N-(3-methoxyphenyl)-1-oxo-1,2,3,4-tetrahydroisoquinoline-4-carboxamide] the IC50 was 32.1 µg/mL (≈ 68.9 µM). Work on `COCCN1C(=O)c2ccccc2C(C(=O)Nc2cccc(OC(F)(F)F)c2)C1c1cccs1` (stereo not shown) [C112, 2-(2-methoxyethyl)-1-oxo-3-(thiophen-2-yl)-N-(3-(trifluoromethoxy)phenyl)-1,2,3,4-tetrahydroisoquinoline-4-carboxamide] yielded an IC50 of 0.31 µg/mL (≈ 0.632 µM). Work on `COCCN1C(=O)c2ccccc2C(C(=O)Nc2ccc3c(c2)CCN3C)C1c1cccs1` (stereo not shown) [C176, 2-(2-methoxyethyl)-N-(1-methylindolin-5-yl)-1-oxo-3-(thiophen-2-yl)-1,2,3,4-tetrahydroisoquinoline-4-carboxamide] yielded an IC50 of 0.48 µg/mL (≈ 1.04 µM). With `COCCN1C(=O)c2cc(I)ccc2C(C(=O)Nc2cccc(OC)c2)C1c1cccs1` (stereo not shown) [C56, 7-Iodo-2-(2-methoxyethyl)-N-(3-methoxyphenyl)-1-oxo-3-(thiophen-2-yl)-1,2,3,4-tetrahydroisoquinoline-4-carboxamide] the IC50 was 0.98 µg/mL (≈ 1.74 µM). `COc1cccc(NC(=O)C2c3ccccc3C(=O)N(CCSC)C2c2cccs2)c1` (stereo not shown) [C63, N-(3-methoxyphenyl)-2-(2-(methylthio)ethyl)-1-oxo-3-(thiophen-2-yl)-1,2,3,4-tetrahydroisoquinoline-4-carboxamide] showed an IC50 of 3.21 µg/mL (≈ 7.09 µM). `COCCN1C(=O)c2ccccc2C(C(=O)Nc2ccc3nccnc3c2)C1c1cccs1` (stereo not shown) [C171, 2-(2-methoxyethyl)-1-oxo-N-(quinoxalin-6-yl)-3-(thiophen-2-yl)-1,2,3,4-tetrahydroisoquinoline-4-carboxamide] was tested, and the IC50 was 0.12 µg/mL (≈ 0.262 µM). In the case of `COCCN1C(=O)c2cc(Cl)ccc2C(C(=O)Nc2cccc(OC)c2)C1c1cccs1` (stereo not shown) [C43, 7-Chloro-2-(2-methoxyethyl)-N-(3-methoxyphenyl)-1-oxo-3-(thiophen-2-yl)-1,2,3,4-tetrahydroisoquinoline-4-carboxamide], the IC50 is reported as 0.3 µg/mL (≈ 0.637 µM). In the case of `COCCN1C(=O)c2ccccc2C(C(=O)Nc2ccc(-n3nc(C)cc3C)cc2)C1c1cccs1` (stereo not shown) [C201, N-(4-(3,5-dimethyl-1H-pyrazol-1-yl)phenyl)-2-(2-methoxyethyl)-1-oxo-3-(thiophen-2-yl)-1,2,3,4-tetrahydroisoquinoline-4-carboxamide], the IC50 is reported as 0.078 µg/mL (≈ 0.156 µM). For `COCCN1C(=O)c2c(C)cccc2C(C(=O)Nc2cccc(OC)c2)C1c1cccs1` (stereo not shown) [C42, 2-(2-Methoxyethyl)-N-(3-methoxyphenyl)-8-methyl-1-oxo-3-(thiophen-2-yl)-1,2,3,4-tetrahydroisoquinoline-4-carboxamide], the IC50 was 0.5 µg/mL (≈ 1.11 µM). In the case of `COc1cccc(NC(=O)C2c3ccccc3C(=O)N(CC3CCCCC3)C2c2cccs2)c1` (stereo not shown) [C22, 2-(Cyclohexylmethyl)-N-(3-methoxyphenyl)-1-oxo-3-(thiophen-2-yl)-1,2,3,4-tetrahydroisoquinoline-4-carboxamide], the IC50 is reported as 4.09 µg/mL (≈ 8.62 µM). Work on `COCCN1C(=O)c2ccccc2C(C(=O)Nc2onc(C)c2C)C1c1cccs1` (stereo not shown) [C220, N-(3,4-dimethylisoxazol-5-yl)-2-(2-methoxyethyl)-1-oxo-3-(thiophen-2-yl)-1,2,3,4-tetrahydroisoquinoline-4-carboxamide] yielded an IC50 of 2.67 µg/mL (≈ 6.27 µM). `COCCN1C(=O)c2ccccc2C(C(=O)Nc2cc(C3CC3)nn2C)C1c1cccs1` (stereo not shown) [C197, N-(3-cyclopropyl-1-methyl-1H-pyrazol-5-yl)-2-(2-methoxyethyl)-1-oxo-3-(thiophen-2-yl)-1,2,3,4-tetrahydroisoquinoline-4-carboxamide] was tested, and the IC50 was 4 µg/mL (≈ 8.88 µM). With `COCCn1c(-c2ccco2)c(C(=O)Nc2cccc(OC)c2)c2ccccc2c1=O` [C38, 3-(furan-2-yl)-2-(2-methoxyethyl)-N-(3-methoxyphenyl)-1-oxo-1,2-dihydroisoquinoline-4-carboxamide] the IC50 was 41.4 µg/mL (≈ 98.9 µM). In the case of `COCCN1C(=O)c2ccccc2C(C(=O)Nc2nc(-c3ccccc3)ns2)C1c1cccs1` (stereo not shown) [C194, 2-(2-methoxyethyl)-1-oxo-N-(3-phenyl-1,2,4-thiadiazol-5-yl)-3-(thiophen-2-yl)-1,2,3,4-tetrahydroisoquinoline-4-carboxamide], the IC50 is reported as 0.019 µg/mL (≈ 0.0387 µM).
